What all share (assay): relative viability (nuclei count vs DMSO), 5 days (fraction); higher = more cells survive
Compound in assay [1]: CC1(COc2ccc3c(c2)ncn3-c2ccc3cccc(N4CCC(N)CC4)c3n2)COC1 [Crenolanib] + CC(=O)Nc1cccc(-n2c(=O)n(C3CC3)c(=O)c3c(Nc4ccc(I)cc4F)n(C)c(=O)c(C)c32)c1 [Trametinib] (partner 0.02 µM)
A digest of the protocol:
(§1)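 Relative viability equals treated-well nuclei counts divided by vehicle-well nuclei counts. Counts came from 4× images of lung cancer cell lines grown in 1536-well plates for 5 days after pin-tool dosing on the day after seeding. Dosing used one drug alone or a fixed anchor-drug dose plus five library-drug doses (not always all listed) in √10 steps, and values are medians of duplicate plates.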

Compound in assay [2]: O=C1NC(=O)[C@@H](c2cn3c4c(cccc24)CCC3)[C@@H]1c1c[nH]c2ccccc12 [Tivantinib] + CC(C)C[C@H](NC(=O)[C@H](Cc1ccccc1)NC(=O)c1cnccn1)B(O)O [Bortezomib] (partner 0.002 µM)
A digest of the protocol:
as §1

Compound in assay [3]: O=C1NC(=O)[C@@H](c2cn3c4c(cccc24)CCC3)[C@@H]1c1c[nH]c2ccccc12 [Tivantinib] + CCNC(=O)c1noc(-c2cc(C(C)C)c(O)cc2O)c1-c1ccc(CN2CCOCC2)cc1 [Luminespib] (partner 0.01 µM)
A digest of the protocol: as §1

Compound in assay [4]: O=C1NC(=O)[C@@H](c2cn3c4c(cccc24)CCC3)[C@@H]1c1c[nH]c2ccccc12 [Tivantinib] + Nc1nc2[nH]cc(CCc3ccc(C(=O)N[C@@H](CCC(=O)O)C(=O)O)cc3)c2c(=O)[nH]1 [Pemetrexed] (partner 0.2 µM)
An outline of the steps:
as §1

The values below come from the supplement of paper PMC10307832.

On to UMC-11, for which the relative viability in assay [1] (first compound 0.01 µM) is 0.74; in assay [1] (first compound 0.03162 µM), 0.676; in assay [1] (first compound 0.1 µM), 0.683; in assay [1] (first compound 0.3162 µM), 0.68; in assay [1] (first compound 1 µM), 0.684; in assay [2] (first compound 0.01 µM), 0.678. For the same cell line, the relative viability came out at 0.734 in assay [2] (first compound 0.03162 µM); 0.551 in assay [2] (first compound 0.1 µM); 0.969 in assay [2] (first compound 0.3162 µM); 0.927 in assay [3] (first compound 0.01 µM); 1.02 in assay [3] (first compound 0.03162 µM); 0.928 in assay [3] (first compound 0.1 µM). For the same cell line, the relative viability in assay [3] (first compound 0.3162 µM) turned out to be 1.13; in assay [4] (first compound 0.01 µM), 0.772; in assay [4] (first compound 0.03162 µM) it was 0.759; in assay [4] (first compound 0.1 µM) it was 0.75; in assay [4] (first compound 0.3162 µM) it was 0.803.
